From the NIST ThermoML archive (doi:10.1016/j.tca.2012.05.004)

Assay: xn = mol fraction of the nth substance listed
Conditions: 101.3 kPa, Liquid, Vibrating tube method

CCCCC(C)O (configuration not stated) [2-hexanol] + ClCCCl
mass density [kg/m3]
Conditions | 288.15 K | 293.15 K | 298.15 K | 303.15 K | 308.15 K | 313.15 K
x1 = 0.0502 | 1223.08 | 1216.04 | 1208.98 | 1201.9 | 1194.78 | 1187.63
x1 = 0.0999 | 1188.97 | 1182.13 | 1175.27 | 1168.37 | 1161.45 | 1154.5
x1 = 0.1504 | 1157.18 | 1150.56 | 1143.9 | 1137.21 | 1130.49 | 1123.74
x1 = 0.2001 | 1126.22 | 1120.72 | 1114.91 | 1108.44 | 1101.9 | 1095.33
x1 = 0.2498 | 1099.98 | 1093.76 | 1087.5 | 1081.2 | 1074.85 | 1068.47
x1 = 0.2995 | 1073.96 | 1068.01 | 1061.96 | 1055.85 | 1049.7 | 1043.51
x1 = 0.3499 | 1048.88 | 1043.06 | 1037.18 | 1031.25 | 1025.28 | 1019.26
x1 = 0.3999 | 1025.35 | 1019.69 | 1013.99 | 1008.24 | 1002.45 | 996.615
x1 = 0.45 | 1003.14 | 997.678 | 992.164 | 986.594 | 980.978 | 975.219
x1 = 0.4994 | 982.243 | 976.929 | 971.582 | 966.175 | 960.716 | 955.218
x1 = 0.5501 | 961.948 | 956.802 | 951.619 | 946.386 | 941.113 | 935.792
x1 = 0.5999 | 942.875 | 937.885 | 932.861 | 927.787 | 922.674 | 917.511
x1 = 0.6498 | 924.759 | 919.925 | 915.048 | 910.129 | 905.161 | 900.15
x1 = 0.6995 | 907.657 | 903.05 | 898.319 | 893.543 | 888.715 | 883.843
x1 = 0.7499 | 891.009 | 886.457 | 881.863 | 877.224 | 872.535 | 867.8
x1 = 0.8004 | 874.928 | 870.513 | 866.056 | 861.55 | 856.996 | 852.392
x1 = 0.8499 | 859.958 | 855.674 | 851.345 | 846.966 | 842.537 | 838.058
x1 = 0.8998 | 845.485 | 841.327 | 837.125 | 832.874 | 828.565 | 824.204
x1 = 0.9482 | 831.995 | 827.968 | 823.889 | 819.755 | 815.567 | 811.322

CCCCCCC(C)O (configuration not stated) [2-octanol] + ClCCCl
mass density [kg/m3]
Conditions | 288.15 K | 293.15 K | 298.15 K | 303.15 K | 308.15 K | 313.15 K
x1 = 0.0499 | 1215.16 | 1208.22 | 1201.27 | 1194.29 | 1187.27 | 1180.23
x1 = 0.1 | 1175.12 | 1168.45 | 1161.76 | 1155.05 | 1148.31 | 1141.54
x1 = 0.1503 | 1139.01 | 1132.67 | 1126.33 | 1119.85 | 1113.38 | 1106.89
x1 = 0.2006 | 1106.43 | 1100.33 | 1094.18 | 1087.99 | 1081.76 | 1075.51
x1 = 0.2498 | 1077.37 | 1071.56 | 1065.66 | 1059.71 | 1053.73 | 1047.71
x1 = 0.3 | – | – | – | – | 1027.49 | –
x1 = 0.3002 | 1050.06 | 1044.59 | 1038.96 | 1033.26 | – | 1021.69
x1 = 0.35 | 1025.54 | 1020.16 | 1014.7 | 1009.18 | 1003.62 | 998.027
x1 = 0.3999 | 1002.85 | 997.633 | 992.342 | 987.014 | 981.649 | 976.252
x1 = 0.4499 | 981.685 | 976.658 | 971.558 | 966.415 | 961.229 | 956.01
x1 = 0.4999 | 962.134 | 957.22 | 952.273 | 947.296 | 942.282 | 937.233
x1 = 0.5503 | 943.764 | 939.011 | 934.225 | 929.407 | 924.551 | 919.661
x1 = 0.5992 | 927.273 | 922.663 | 918.023 | 913.351 | 908.639 | 903.897
x1 = 0.6492 | 911.359 | 906.886 | 902.382 | 897.844 | 893.27 | 888.66
x1 = 0.6989 | 896.738 | 892.39 | 888.013 | 883.603 | 879.157 | 874.674
x1 = 0.7503 | 882.325 | 878.102 | 873.846 | 869.558 | 865.235 | 860.873
x1 = 0.7989 | 869.78 | 865.66 | 861.514 | 857.336 | 853.118 | 848.865
x1 = 0.8497 | 857.292 | 853.282 | 849.241 | 845.167 | 841.058 | 836.912
x1 = 0.899 | 845.686 | 841.775 | 837.835 | 833.858 | 829.849 | 825.799
x1 = 0.9492 | 834.672 | 830.858 | 827.012 | 823.127 | 819.211 | 815.252

CCCC(C)O (configuration not stated) [pentan-2-ol] + ClCCCl
mass density [kg/m3]
Conditions | 288.15 K | 293.15 K | 298.15 K | 303.15 K | 308.15 K | 313.15 K
x1 = 0.0509 | 1226.72 | 1219.63 | 1212.52 | 1205.37 | 1198.2 | 1191
x1 = 0.0999 | 1196.47 | 1189.53 | 1182.56 | 1175.56 | 1168.53 | 1161.46
x1 = 0.1497 | 1167.33 | 1160.55 | 1153.74 | 1146.89 | 1140.02 | 1133.12
x1 = 0.2001 | 1139.13 | 1132.52 | 1125.87 | 1119.19 | 1112.48 | 1105.73
x1 = 0.2502 | 1112.6 | 1106.17 | 1099.71 | 1093.19 | 1086.65 | 1080.06
x1 = 0.2998 | 1087.39 | 1081.13 | 1074.82 | 1068.48 | 1062.1 | 1055.67
x1 = 0.3504 | 1062.46 | 1056.4 | 1050.28 | 1044.1 | 1037.89 | 1031.63
x1 = 0.4003 | 1038.87 | 1033 | 1027.05 | 1021.06 | 1015.01 | 1008.92
x1 = 0.4498 | 1016.42 | 1010.71 | 1004.93 | 999.094 | 993.214 | 987.283
x1 = 0.4996 | 994.615 | 989.082 | 983.473 | 977.807 | 972.094 | 966.328
x1 = 0.55 | 973.401 | 967.993 | 962.539 | 957.039 | 951.485 | 945.875
x1 = 0.5998 | 953.123 | 947.916 | 942.637 | 937.302 | 931.911 | 926.465
x1 = 0.6497 | 933.494 | 928.405 | 923.275 | 918.089 | 912.85 | 907.552
x1 = 0.6997 | 914.579 | 909.663 | 904.685 | 899.659 | 894.573 | 889.432
x1 = 0.7493 | 896.637 | 891.863 | 887.037 | 882.154 | 877.213 | 872.217
x1 = 0.8001 | 878.694 | 874.079 | 869.408 | 864.68 | 859.891 | 855.042
x1 = 0.8497 | 861.674 | 857.211 | 852.695 | 848.111 | 843.467 | 838.76
x1 = 0.8991 | 845.438 | 841.13 | 836.763 | 832.331 | 827.833 | 823.267
x1 = 0.9504 | 828.863 | 824.722 | 820.52 | 816.244 | 811.899 | 807.481
